Test results taken from paper PMC10821532, “Sex and Cross-Sex Testosterone Treatment Alters Gamma-Hydroxybutyrate Acid Toxicokinetics and Toxicodynamics in Rats” (Pharmaceutics, 2024).

What was measured:
[1] = GHB toxicokinetic study, i.v. bolus, plasma and urine up to 8 h, noncompartmental analysis; format: in vivo, Sprague Dawley rats; conditions: 1 mg/kg AR-C 155858 iv 5 min after 1500 mg/kg GHB iv vs GHB alone
Experimental: (§1) Male and female Sprague Dawley (SD) rats, ovariectomized (OVX) females, and castrated (CST) males were obtained from Charles River (Wilmington, MA, USA) at 8 weeks of age. The animals were housed under controlled temperature and humidity with an artificial 12 h light/dark cycle, and food and water were available ad libitum. The animals were acclimatized for at least one week before experiments. Hormone treatment was conducted by implanting OVX female and CST male rats subcutaneously with 60-day release pellets containing 7.5 mg testosterone or corresponding placebo pellets (Innovative Research of America) at 10 weeks of age. After 21 days of hormone exposure, rats were utilized in toxicokinetic studies. Age-matched male and female rats were used as control groups. Female rats in the estrus stage were selected for the study. Estrus cycle stages of female rats were monitored daily by vaginal lavage smear, as described in previously published literature. The Institutional Animal Care and Use Committee (IACUC) at the University of the Pacific approved all experiments.
(§2) Jugular vein cannulas were surgically implanted under anesthesia with ketamine/xylazine. Cannulas were flushed daily with heparinized saline to maintain patency. Rats were allowed a minimum of 72 h for recovery from surgery before the experiments were conducted. GHB was administered intravenously as a 1000 mg/kg i.v. bolus or 1500 mg/kg iv bolus with or without AR-C155858 (1 mg/kg i.v. bolus) via a jugular vein cannula to the animals at 13 weeks of age (N = 5–7 per group). Rats were dosed in metabolic cages with ad libitum access to water to allow for the concurrent collection of blood and urine samples for up to 8 h. GHB was administered as a 300 mg/mL solution in sterile water, and the time of administration was considered as time 0. AR-C155858 was administered as a 1 mg/mL solution in 10% cyclodextrin in normal saline 5 min after GHB administration. Blood samples (200 μL) were taken from the jugular vein cannula at different time points: 5, 10, 20, 30, 60, 90, 120, 180, 240, 270, 300, and 330 min for 1000 mg/kg and 10, 30, 60, 90, 120, 180, 240, 270, 300, 330, 360, and 390/480 min for 1500 mg/kg bolus with or without AR-C155858. Plasma samples were separated by centrifugation and stored at −20 °C. Urine samples were collected at 120, 240, and 360 min for 1000 mg/kg and 120, 240, and 390/480 min for 1500 mg/kg bolus with or without AR-C155858 post-dose; the total urine volume was determined, and the samples were stored at −20 °C.
GHB in plasma and urine were quantified using a validated liquid chromatography/tandem mass spectrometry (LC/MS/MS) assay that was described previously. Briefly, for the preparation of plasma standards and quality controls (QCs), 5 μL of GHB-d6 and 5 μL of standard stock solution or QC stock solution were added to 45 μL of blank plasma. For each unknown plasma sample, 5 μL of GHB-d6 was added to 50 μL of plasma. Protein precipitation was then performed by the addition of 800 μL of acetonitrile with 0.1% formic acid, followed by centrifugation at 10,000 rpm for 20 min. 750 μL of the supernatant was transferred to a clean disposable glass tube and evaporated using a MultiVap Nitrogen Evaporator (Organomation, Berlin, MA, USA) under a nitrogen stream. Dried samples were reconstituted in 250 μL of 95:5 double-distilled water—acetonitrile with 0.1% acetic acid. For urine standards and QCs, 25 μL of blank urine, 5 μL of standard or QC stock solution, 5 μL of GHB-d6, and 465 μL of double-distilled water were mixed. For unknown urine samples, 25 μL of the sample was added to 5 μL of GHB-d6 and 470 μL of double-distilled water. The same LC/MS/MS method was used for GHB plasma and urine analyses. LC/MS/MS equipment consisted of an Agilent 1200 series UPLC consisting of an online degasser, binary pump, and autosampler (Agilent Technologies, Santa Clara, CA, USA) connected to a Agilent 6460 Triple Quad Mass Spectrometer. […]

Sprague Dawley (SD) rats = experiment: Sedative/hypnotic effect (sleep time, RRR-LRR) after i.v. GHB; format: in vivo
Experimental: as §2
The sedative/hypnotic effects (sleep time) were determined, as described in a previous publication. The sedative/hypnotic duration effect of GHB was determined as the difference between the offset of the sedative/hypnotic effect (RRR) and the onset of the sedative/hypnotic effect (LRR).

MCT2 = target: MCT2; parameters: method as in PMID 19929853; conditions: cited from earlier work
MCT4 = system: MCT4; parameters: method as in PMID 19929853; conditions: cited from earlier work
[2] = Plasma testosterone level after 21 days of testosterone pellet treatment (LC-MS); format: in vivo, Sprague Dawley rats; conditions: Sprague Dawley, rat, sc, 7.5 mg 60-day release testosterone pellet s.c.
Experimental: as §1
Testosterone plasma concentrations were quantified using a validated LC-MS assay, as described previously. […] The same LC/MS/MS equipment was used for quantification, as mentioned above. […]

SMILES	Effect of AR-C 155858 on GHB fe [1]	Effect of AR-C 155858 on GHB metabolic clearance [1]	Effect of AR-C 155858 on GHB renal clearance [1]	Effect of AR-C155858 on GHB AUC ([1]; all animal groups)	Effect of AR-C155858 on GHB total clearance ([1]; all animal groups)	Effect of AR-C 155858 on GHB sleep time (Sprague Dawley (SD) rats; 1 mg/kg AR-C 155858 iv 5 min after 1500 mg/kg GHB iv vs GHB alone)	Sleep time after AR-C 155858 administration (Sprague Dawley (SD) rats; 1500 mg/kg GHB iv + 1 mg/kg AR-C 155858 iv 5 min after GHB, all populations) [min]	Ki (MCT2) [µM]	Inhibitory effect on MCT4 (MCT4)	concentration at 21 days ([2]; female, OVX rats) [ng/mL]	concentration at 21 days ([2]; male, CST rats) [ng/mL]
Cc1n[nH]c(C)c1Cc1sc2c(c1C(=O)N1C[C@H](O)CO1)c(=O)n(C)c(=O)n2CC(C)C [AR-C 155858, 6-[(3,5-Dimethyl-1H-pyrazol-4-yl)methyl]-5-[[(4S)-4-hydroxy-2-isoxazolidinyl]carbonyl]-3-methyl-1-(2-methylpropyl)thieno [2,3-d]pyrimidine-2,4(1H,3H)-dione]	significantly increased fe in testosterone-treated animal groups	did not yield any statistically significant differences in metabolic clearance across all animal groups, except in intact males	statistically significant increase in renal clearance across all animal groups, except for intact males	lower AUC	higher total clearance	significant reduction in sleep time across all animal groups	0 to 38	~0.01	no inhibitory effect on MCT4	–	–
C[C@]12CC[C@H]3[C@@H](CCC4=CC(=O)CC[C@@]43C)[C@@H]1CC[C@@H]2O [Testosterone, testosterone]	–	–	–	–	–	–	–	–	–	6.22 ± 2.63	5.44 ± 1.96
